Conditions: Liquid, Vibrating tube method

CCCCCCCCCC [decane]
Conditions | mass density [kg/m3]
283.55 K, 5000 kPa | 742
283.56 K, 3000 kPa | 740
283.56 K, 20000 kPa | 752
283.56 K, 30000 kPa | 758
283.56 K, 40000 kPa | 763
283.56 K, 50000 kPa | 769
283.56 K, 60000 kPa | 774
283.56 K, 70000 kPa | 779
283.56 K, 80000 kPa | 783
283.56 K, 90000 kPa | 788
283.57 K, 1000 kPa | 739
283.57 K, 10000 kPa | 745
283.58 K, 100 kPa | 738
293.48 K, 100 kPa | 731
293.48 K, 1000 kPa | 731
293.49 K, 5000 kPa | 734
293.49 K, 10000 kPa | 738
293.49 K, 20000 kPa | 745
293.5 K, 30000 kPa | 751
293.5 K, 40000 kPa | 757
293.5 K, 50000 kPa | 763
293.5 K, 100000 kPa | 787
293.51 K, 60000 kPa | 768
293.51 K, 70000 kPa | 773
293.51 K, 80000 kPa | 778
293.51 K, 90000 kPa | 783
303.42 K, 100 kPa | 723
303.42 K, 1000 kPa | 724
303.42 K, 10000 kPa | 731
303.42 K, 30000 kPa | 745
303.42 K, 40000 kPa | 751
303.42 K, 70000 kPa | 768
303.42 K, 80010 kPa | 773
303.42 K, 90000 kPa | 777
303.43 K, 5000 kPa | 727
303.43 K, 20000 kPa | 738
303.43 K, 50000 kPa | 757
303.43 K, 60000 kPa | 762
303.43 K, 100000 kPa | 782
313.35 K, 100 kPa | 716
313.35 K, 1000 kPa | 717
313.35 K, 5000 kPa | 721
313.35 K, 40000 kPa | 746
313.36 K, 20000 kPa | 732
313.36 K, 50000 kPa | 752
313.36 K, 70000 kPa | 763
313.36 K, 80000 kPa | 768
313.36 K, 90000 kPa | 773
313.36 K, 100000 kPa | 777
313.37 K, 10000 kPa | 725
313.37 K, 30000 kPa | 739
313.37 K, 60000 kPa | 757
323.24 K, 100 kPa | 708
323.24 K, 1000 kPa | 709
323.24 K, 100000 kPa | 771
323.25 K, 5000 kPa | 712
323.25 K, 10000 kPa | 717
323.25 K, 20000 kPa | 725
323.25 K, 30000 kPa | 732
323.25 K, 40000 kPa | 739
323.25 K, 50000 kPa | 745
323.25 K, 60000 kPa | 751
323.25 K, 70000 kPa | 757
323.25 K, 80000 kPa | 762
323.25 K, 90000 kPa | 767
333.12 K, 5000 kPa | 705
333.12 K, 10000 kPa | 710
333.12 K, 20000 kPa | 718
333.13 K, 100 kPa | 700
333.13 K, 1000 kPa | 701
333.13 K, 30000 kPa | 726
333.13 K, 80000 kPa | 757
333.13 K, 90000 kPa | 762
333.13 K, 100000 kPa | 767
333.14 K, 40000 kPa | 733
333.14 K, 50000 kPa | 740
333.14 K, 60000 kPa | 746
333.14 K, 70000 kPa | 751
343.01 K, 100 kPa | 693
343.01 K, 1000 kPa | 694
343.01 K, 10000 kPa | 703
343.01 K, 20000 kPa | 712
343.01 K, 30000 kPa | 720
343.01 K, 40000 kPa | 727
343.01 K, 50000 kPa | 734
343.01 K, 60000 kPa | 740
343.02 K, 5000 kPa | 698
343.02 K, 70000 kPa | 746
343.02 K, 80000 kPa | 752
343.02 K, 90000 kPa | 757
343.02 K, 100000 kPa | 762
352.87 K, 100 kPa | 686
352.87 K, 1000 kPa | 687
352.87 K, 5000 kPa | 691
352.88 K, 10000 kPa | 696
352.88 K, 20000 kPa | 706
352.88 K, 30000 kPa | 714
352.88 K, 40000 kPa | 722
352.88 K, 50000 kPa | 729
352.88 K, 60000 kPa | 735
352.89 K, 70000 kPa | 741
352.89 K, 80000 kPa | 747
352.89 K, 90000 kPa | 753
352.89 K, 100000 kPa | 758
362.69 K, 100 kPa | 677
362.69 K, 1000 kPa | 678
362.7 K, 5000 kPa | 683
362.7 K, 10000 kPa | 689
362.71 K, 20000 kPa | 699
362.71 K, 30000 kPa | 708
362.71 K, 40000 kPa | 716
362.71 K, 50000 kPa | 723
362.71 K, 60000 kPa | 730
362.72 K, 70000 kPa | 736
362.72 K, 80000 kPa | 742
362.72 K, 90000 kPa | 747
362.72 K, 100000 kPa | 753

CCCCCCCCCCCC [dodecane]
Conditions | mass density [kg/m3]
283.29 K, 100 kPa | 756
283.29 K, 1000 kPa | 757
283.29 K, 3000 kPa | 758
283.3 K, 5000 kPa | 760
283.3 K, 10000 kPa | 763
283.3 K, 30000 kPa | 775
283.3 K, 40000 kPa | 780
283.3 K, 50000 kPa | 785
283.3 K, 60000 kPa | 790
283.31 K, 20000 kPa | 769
283.31 K, 70000 kPa | 795
283.32 K, 80000 kPa | 799
283.32 K, 90000 kPa | 803
293.17 K, 100 kPa | 749
293.18 K, 1000 kPa | 750
293.19 K, 5000 kPa | 753
293.19 K, 10000 kPa | 756
293.19 K, 20000 kPa | 763
293.19 K, 30000 kPa | 769
293.19 K, 40000 kPa | 774
293.19 K, 50000 kPa | 780
293.19 K, 70000 kPa | 789
293.19 K, 80000 kPa | 794
293.19 K, 90000 kPa | 798
293.19 K, 100000 kPa | 802
293.2 K, 60000 kPa | 785
303.04 K, 30000 kPa | 762
303.04 K, 100000 kPa | 797
303.05 K, 100 kPa | 742
303.05 K, 1000 kPa | 743
303.05 K, 5000 kPa | 746
303.05 K, 20000 kPa | 756
303.05 K, 50000 kPa | 774
303.05 K, 60000 kPa | 779
303.05 K, 70000 kPa | 784
303.05 K, 80000 kPa | 789
303.05 K, 90000 kPa | 793
303.06 K, 10000 kPa | 749
303.06 K, 40000 kPa | 768
312.89 K, 100 kPa | 736
312.89 K, 1000 kPa | 737
312.9 K, 5000 kPa | 740
312.9 K, 10000 kPa | 744
312.9 K, 20000 kPa | 751
312.9 K, 30000 kPa | 757
312.9 K, 40000 kPa | 763
312.9 K, 50000 kPa | 769
312.9 K, 60000 kPa | 774
312.9 K, 70000 kPa | 780
312.9 K, 80000 kPa | 784
312.9 K, 90000 kPa | 789
312.9 K, 100000 kPa | 793
322.83 K, 100 kPa | 727
322.83 K, 1000 kPa | 728
322.83 K, 5000 kPa | 732
322.83 K, 10000 kPa | 736
322.83 K, 20000 kPa | 743
322.83 K, 30000 kPa | 750
322.83 K, 40000 kPa | 756
322.83 K, 50000 kPa | 762
322.83 K, 60000 kPa | 768
322.83 K, 70000 kPa | 773
322.83 K, 80000 kPa | 778
322.83 K, 90000 kPa | 783
322.83 K, 100000 kPa | 787
332.74 K, 100 kPa | 720
332.74 K, 1000 kPa | 721
332.74 K, 5000 kPa | 725
332.74 K, 10000 kPa | 729
332.74 K, 20000 kPa | 737
332.74 K, 30000 kPa | 744
332.74 K, 40000 kPa | 750
332.74 K, 50000 kPa | 757
332.74 K, 60000 kPa | 762
332.74 K, 70000 kPa | 768
332.74 K, 80000 kPa | 773
332.74 K, 90000 kPa | 778
332.75 K, 100000 kPa | 782
342.67 K, 100 kPa | 713
342.67 K, 1000 kPa | 714
342.67 K, 5000 kPa | 718
342.67 K, 10000 kPa | 722
342.67 K, 20000 kPa | 731
342.67 K, 30000 kPa | 738
342.67 K, 40000 kPa | 745
342.67 K, 50000 kPa | 751
342.67 K, 60000 kPa | 757
342.67 K, 69990 kPa | 763
342.67 K, 80000 kPa | 768
342.67 K, 90000 kPa | 773
342.67 K, 100000 kPa | 778
352.58 K, 100 kPa | 707
352.58 K, 1000 kPa | 708
352.58 K, 5000 kPa | 712
352.58 K, 10000 kPa | 716
352.58 K, 20000 kPa | 725
352.58 K, 30000 kPa | 733
352.58 K, 40000 kPa | 740
352.58 K, 50000 kPa | 747
352.58 K, 60000 kPa | 753
352.58 K, 70000 kPa | 759
352.58 K, 80000 kPa | 764
352.58 K, 90000 kPa | 769
352.58 K, 100000 kPa | 774
362.48 K, 5000 kPa | 704
362.48 K, 10000 kPa | 709
362.48 K, 20000 kPa | 718
362.48 K, 30000 kPa | 726
362.48 K, 50000 kPa | 741
362.48 K, 80000 kPa | 759
362.48 K, 90000 kPa | 764
362.49 K, 100 kPa | 699
362.49 K, 1000 kPa | 700
362.49 K, 40000 kPa | 734
362.49 K, 60000 kPa | 747
362.49 K, 70000 kPa | 753
362.49 K, 100000 kPa | 769

Source: the NIST ThermoML archive (doi:10.1016/j.fluid.2017.12.010)
